Measured values taken from patent US8076486B2, “Heteroaryl-substituted arylaminopyridine derivatives as MEK inhibitors” (Merck Serono S.A., priority 2006, dated 2011).

What was measured:
Murine colon C26 cells = assay: Tumor Cell Proliferation Assay (ATP Lite), C26; type: cell-based; details: Mus musculus, 96 h, 4 days, ATPlite
Method: (§1) Assay 2: Tumor Cell Proliferation Assays (ATP Lite)
(§2) Murine colon C26 (1500 cells/well), human melanoma A375 (2000 cells/well), or human pancreatic MiaPaCa-2 cells (2000 cells/well) were plated in white, 96 well plates (Corning) in growth media (DMEM with 10% fetal bovine serum, 2 mM glutamine for C26 and MiaPaCa-2, and RPMI with 10% fetal bovine serum, 2 mM glutamine for A375) and cultured overnight at 37° C. in a humidified, 5% CO2 incubator. Inhibitors were serially diluted in 100% DMSO and subsequently added to the cells, in growth media, to reach a final concentration of 0.25% DMSO. The cells were incubated for 4 days in the presence of the test compounds and the proliferation was quantitated using the ATPlite cell proliferation kit (Packard).

human MEK1 = human MEK1 (Homo sapiens, UniProt Q02750, S218E/S222E); assay: MEK-1 Enzyme Assay (LANCE-HTRF); type: biochemical; details: MEK-1 EE, ERK-2K52A substrate, 9 uM ATP, 1.5 hrs
Method: Assay 1: MEK-1 Enzyme Assay (LANCE-HTRF)
Inhibition of human MEK1 kinase activity was monitored with a homogenous, fluorescence-based assay. The assay uses time resolved fluorescence resonance energy transfer to probe for phosphorylation of ERK1 by MEK1. The detailed procedure is described in the following:
Constititutively active MEK-1 EE (150 ng/well) and ERK-2K52A (110 ng/well) were incubated in black, 384 well Optiplates (Perkin Elmer) for 1.5 hrs at room temperature, in the presence of increasing concentrations of inhibitors. The total reaction volume was 50 ul. The inhibitors were serial diluted in kinase buffer (9 uM ATP, 50 mM Tris-Hcl pH 8.0, 10 mM MgCl2, 1 mM DTT and 100 uM Na3VO4), to a final concentration of 1% DMSO. At the end of the incubation, the enzyme reaction was quenched by adding 50 ul of assay buffer containing 50 mM Tris-Hcl, 50 mM EDTA, 0.1% BSA and a mixture of 1.25 ug/mL europium labeled anti-phosphotyrosine mAb (Perkin Elmer) and 5 ug/mL of allophycocyanin labeled anti-GST antibody (CIS-US). Plates were agitated on a plate shaker for 30 minutes and the phosphorylation of the ERK-2K52A substrate was measured by homogeneous time resolved fluorescence (HTRF) at 340 nm excitation and […] emission filters on the VICTOR V fluorescence plate reader. Phosphorylation is expressed as a ratio of 665 nM signal×10,000/615 nM signal. To assess the inhibitory potential of the compounds, IC50-values were determined.

[1] = tested on: human melanoma A375 cells; assay: Tumor Cell Proliferation Assay (ATP Lite), A375; type: cell-based; details: A-375, 96 h, 4 days, ATPlite
Method: as §1, §2

[2] = tested on: human pancreatic MiaPaCa-2 cells; assay: Tumor Cell Proliferation Assay (ATP Lite), MiaPaCa-2; type: cell-based; details: MIA PaCa-2, 96 h, 4 days, ATPlite, read-out: MiaPaCa2 cell proliferation IC50
Method: as §1, §2

Chain of human MEK1 (Q02750 whole entry S218E/S222E): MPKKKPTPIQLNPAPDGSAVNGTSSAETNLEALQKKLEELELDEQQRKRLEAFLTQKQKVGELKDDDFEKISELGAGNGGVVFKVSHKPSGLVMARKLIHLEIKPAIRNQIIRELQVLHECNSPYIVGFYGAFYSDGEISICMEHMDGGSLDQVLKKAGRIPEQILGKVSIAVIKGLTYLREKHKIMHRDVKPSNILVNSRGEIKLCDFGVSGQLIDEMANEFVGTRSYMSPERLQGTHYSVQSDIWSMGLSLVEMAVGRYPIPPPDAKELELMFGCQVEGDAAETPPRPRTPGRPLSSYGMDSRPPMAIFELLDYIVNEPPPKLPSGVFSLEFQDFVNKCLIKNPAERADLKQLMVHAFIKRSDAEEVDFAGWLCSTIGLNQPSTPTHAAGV

| Structure (SMILES) | IC50 (Murine colon C26 cells) [nM] | IC50 (human MEK1) [nM] | IC50 [1] [nM] | IC50 [2] [nM] |
| --- | --- | --- | --- | --- |
| Fc1cc(I)ccc1Nc1cnccc1-c1nnc(NCCN2CCOCC2)s1 [Example 12, (2-Fluoro-4-iodo-phenyl)-{4-[5-(2-morpholin-4-yl-ethylamino)-[1,3,4]thiadiazol-2-yl]-pyridin-3-yl}-amine] | ≤ 3000 | ≤ 3000 | ≤ 3000 | ≤ 3000 |
| CCOC(=O)C(=O)Nc1nnc(-c2ccncc2Nc2ccc(I)cc2F)o1 [Example 15, N-{5-[3-(2-Fluoro-4-iodo-phenylamino)-pyridin-4-yl]-[1,3,4]oxadiazol-2-yl}-oxalamic acid ethyl ester] | ≤ 3000 | ≤ 3000 | ≤ 3000 | ≤ 3000 |
| CCOC(=O)CNC(=O)Nc1nnc(-c2ccncc2Nc2ccc(I)cc2F)o1 [Example 17, (3-{5-[3-(2-Fluoro-4-iodo-phenylamino)-pyridin-4-yl]-[1,3,4]oxadiazol-2-yl}-ureido)-acetic acid ethylester] | > 25000 | ≤ 3000 | 3000 to 25000 | 3000 to 25000 |
| Fc1cc(I)ccc1Nc1cnccc1-c1nnc(NCCN2CCCCC2)o1 [Example 18, (2-Fluoro-4-iodo-phenyl)-{4-[5-(2-piperidin-1-yl-ethylamino)-[1,3,4]oxadiazol-2-yl]-pyridin-3-yl}-amine] | ≤ 3000 | ≤ 3000 | ≤ 3000 | ≤ 3000 |
| Fc1cc(I)ccc1Nc1cnccc1-c1nnc(NCCCN2CCOCC2)o1 [Example 19, (2-Fluoro-4-iodo-phenyl)-{4-[5-(3-morpholin-4-yl-propylamino)-[1,3,4]oxadiazol-2-yl]-pyridin-3-yl}-amine] | ≤ 3000 | ≤ 3000 | ≤ 3000 | ≤ 3000 |
| Fc1cc(I)ccc1Nc1cnccc1-c1nnc(NCCN2CCOCC2)o1 [Example 20, (2-Fluoro-4-iodo-phenyl)-{4-[5-(2-morpholin-4-yl-ethylamino)-[1,3,4]oxadiazol-2-yl]-pyridin-3-yl}-amine] | ≤ 3000 | ≤ 3000 | ≤ 3000 | ≤ 3000 |
| CC(=O)Nc1nnc(-c2ccncc2Nc2ccc(I)cc2F)o1 [Example 21, N-{5-[3-(2-Fluoro-4-iodo-phenylamino)-pyridin-4-yl]-[1,3,4]oxadiazol-2-yl}-acetamide] | ≤ 3000 | ≤ 3000 | ≤ 3000 | ≤ 3000 |
| CN(C)CCNc1nnc(-c2ccncc2Nc2ccc(I)cc2F)o1 [Example 22, N-{5-[3-(2-Fluoro-4-iodo-phenylamino)-pyridin-4-yl]-[1,3,4]oxadiazol-2-yl}-N′,N′-dimethyl-ethane-1,2-diamine] | ≤ 3000 | ≤ 3000 | ≤ 3000 | ≤ 3000 |
| Fc1cc(I)ccc1Nc1cnccc1-c1nnc(NCCN2CCCC2)o1 [Example 23, (2-Fluoro-4-iodo-phenyl)-{4-[5-(2-pyrrolidin-1-yl-ethylamino)-[1,3,4]oxadiazol-2-yl]-pyridin-3-yl}-amine] | ≤ 3000 | ≤ 3000 | ≤ 3000 | ≤ 3000 |
| CCOC(=O)Nc1nnc(-c2ccncc2Nc2ccc(I)cc2F)o1 [Example 26, {5-[3-(2-Fluoro-4-iodo-phenylamino)-pyridin-4-yl]-[1,3,4]oxadiazol-2-yl}-carbamic acid ethyl ester] | ≤ 3000 | ≤ 3000 | ≤ 3000 | ≤ 3000 |
| Nc1nnc(-c2cc[n+]([O-])cc2Nc2ccc(I)cc2F)o1 [Example 27, [4-(5-Amino-[1,3,4]oxadiazol-2-yl)-1-oxy-pyridin-3-yl]-(2-fluoro-4-iodo-phenyl)-amine] | ≤ 3000 | ≤ 3000 | ≤ 3000 | ≤ 3000 |
| CCOC(=O)c1nnc(-c2ccncc2Nc2ccc(I)cc2F)[nH]1 [Example 31, 5-[3-(2-Fluoro-4-iodo-phenylamino)-pyridin-4-yl]-4H-[1,2,4]triazole-3-carboxylic acid ethyl ester] | 3000 to 25000 | ≤ 3000 | ≤ 3000 | 3000 to 25000 |
| OCc1nnc(-c2ccncc2Nc2ccc(I)cc2F)[nH]1 [Example 32, {5-[3-(2-Fluoro-4-iodo-phenylamino)-pyridin-4-yl]-4H-[1,2,4]triazol-3-yl}-methanol] | ≤ 3000 | ≤ 3000 | ≤ 3000 | ≤ 3000 |
| Cc1cc(I)ccc1Nc1cnccc1-c1nnc(N)[nH]1 [Example 33, [4-(5-Amino-4H-[1,2,4]triazol-3-yl)-pyridin-3-yl]-(4-iodo-2-methyl-phenyl)-amine] | ≤ 3000 | ≤ 3000 | ≤ 3000 | ≤ 3000 |
| Fc1cc(I)ccc1Nc1cnccc1-c1ncno1 [Example 37, (2-Fluoro-4-iodo-phenyl)-(4-[1,2,4]oxadiazol-5-yl-pyridin-3-yl)-amine] | ≤ 3000 | ≤ 3000 | ≤ 3000 | ≤ 3000 |
| OCc1noc(-c2ccncc2Nc2ccc(I)cc2F)n1 [Example 38, {5-[3-(2-Fluoro-4-iodo-phenylamino)-pyridin-4-yl]-[1,2,4]oxadiazol-3-yl}-methanol] | ≤ 3000 | ≤ 3000 | ≤ 3000 | 3000 to 25000 |
| CCOC(=O)c1nnc(-c2ccncc2Nc2ccc(I)cc2F)o1 [Example 39, 5-[3-(2-Fluoro-4-iodo-phenylamino)-pyridin-4-yl]-[1,3,4]oxadiazole-2-carboxylic acid ethyl ester] | > 25000 | ≤ 3000 | ≤ 3000 | > 25000 |
| Fc1cc(I)ccc1Nc1cnccc1-c1nnco1 [Example 40, (2-Fluoro-4-iodo-phenyl)-(4-[1,3,4]oxadiazol-2-yl-pyridin-3-yl)-amine] | ≤ 3000 | ≤ 3000 | ≤ 3000 | ≤ 3000 |

Other lines, results leading:

| IC50 (Murine colon C26 cells) [nM] | IC50 (human MEK1) [nM] | IC50 [1] [nM] | IC50 [2] [nM] | Structure (SMILES) |
| --- | --- | --- | --- | --- |
| ≤ 3000 | ≤ 3000 | ≤ 3000 | ≤ 3000 | Cc1nnc(-c2ccncc2Nc2ccc(I)cc2F)o1 [Example 13, (2-Fluoro-4-iodo-phenyl)-[4-(5-methyl-[1,3,4]oxadiazol-2-yl)-pyridin-3-yl]-amine] |
| ≤ 3000 | ≤ 3000 | ≤ 3000 | ≤ 3000 | Nc1nnc(-c2ccncc2Nc2ccc(Br)cc2Br)o1 [Example 14, [4-(5-Amino-[1,3,4]oxadiazol-2-yl)-pyridin-3-yl]-(2,4-dibromo-phenyl)-amine] |
| ≤ 3000 | ≤ 3000 | ≤ 3000 | ≤ 3000 | CNc1nnc(-c2ccncc2Nc2ccc(I)cc2F)o1 [Example 16, (2-Fluoro-4-iodo-phenyl)-[4-(5-methylamino-[1,3,4]oxadiazol-2-yl)-pyridin-3-yl]-amine] |
| ≤ 3000 | ≤ 3000 | ≤ 3000 | ≤ 3000 | Nc1nnc(-c2ccncc2Nc2ccc(I)cc2Cl)o1 [Example 24, [4-(5-Amino-[1,3,4]oxadiazol-2-yl)-pyridin-3-yl]-(2-chloro-4-iodo-phenyl)-amine] |
| ≤ 3000 | ≤ 3000 | ≤ 3000 | ≤ 3000 | COc1ccc(Nc2cnccc2-c2nnc(N)o2)c(F)c1 [Example 25, [4-(5-Amino-[1,3,4]oxadiazol-2-yl)-pyridin-3-yl]-(2-fluoro-4-methoxy-phenyl)-amine] |
| ≤ 3000 | ≤ 3000 | ≤ 3000 | ≤ 3000 | Cc1cc(I)ccc1Nc1cnccc1-c1nnc(N)o1 [Example 29, [4-(5-Amino-[1,3,4]oxadiazol-2-yl)-pyridin-3-yl]-(4-iodo-2-methyl-phenyl)-amine] |
| ≤ 3000 | ≤ 3000 | ≤ 3000 | ≤ 3000 | Nc1nnc(-c2ccncc2Nc2ccc(Br)cc2F)o1 [Example 34, [4-(5-Amino-[1,3,4]oxadiazol-2-yl)-pyridin-3-yl]-(4-bromo-2-fluoro-phenyl)-amine] |
| ≤ 3000 | ≤ 3000 | ≤ 3000 | ≤ 3000 | Nc1nnc(-c2ccncc2Nc2ccc(Br)cc2Cl)o1 [Example 35, [4-(5-Amino-[1,3,4]oxadiazol-2-yl)-pyridin-3-yl]-(4-bromo-2-chloro-phenyl)-amine] |
